# Assay results: PubChem BioAssay AID179 (DTP/NCI, 2004)
# pEC50, pIC50: −log10 of the molar value. Active and inactive are the calls of the source.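 Rule for the calls: active = compounds giving half or more protection of infected cells from virus-caused growth loss, again on retest; inactive = the rest.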 Where a SMILES comes first, the peptide text is derived from it.
# Tested on: CEM cells HIV-1 protection, formazan growth assay
# Test: NCI AIDS Antiviral Assay
# Conditions: for pIC50: measured here: growth of uninfected CEM cells
# Method in brief: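 Human CEM cells, uninfected and HIV-1-infected, received five drug concentrations, and growth was read by soluble formazan assay. Compounds giving at least 50% protection were retested; reproducible 100% protection defined confirmed active.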
Compound,outcome,pEC50,pIC50
CCC(C)C(NC(=O)CNC(=O)C(C)NC(=O)CNC(=O)C(NC(=O)C(NC(=O)C(CO)NC(=O)C(Cc1cnc[nH]1)NC(=O)C(N)CCCCN)C(C)CC)C(C)CC)C(=O)NC(CCCCN)C(=O)NC(CCCCN)C(=O)NC(CCCN=C(N)N)C(=O)NC(Cc1ccccc1)C(=O)NC(CC(C)C)C(=O)NC(CCC(N)=O)C(=O)O (stereo not drawn) (H-KHSIIGAGIKKRFLQ-OH; configuration not given here),inactive,–,–
Nn1c(-c2ccccc2Nc2ccccc2-c2n[nH]c(=S)n2N)n[nH]c1=S,–,< 4.30,5.21
CC(C)(C)[Si](C)(C)OCCCCC1CC2(S(=O)(=O)C3=CC=C=C=C3)ON1CC2S(=O)(=O)c1ccccc1 (stereo not drawn),–,< 4.34,< 4.34
CCCCCCCCCCCC(C(=O)O)C(=O)O,–,< 3.86,< 3.86
OCC(O)C(OC1OC(CO)C(O)C(O)C1O)c1nn(-c2ccccc2)c2nc3cc(Cl)c(Cl)cc3cc12 (stereo not drawn),inactive,–,–
C[n+]1c(-c2ccc(/C=N\NC(=O)c3cccc(C(=O)N/N=C/c4ccc(-c5cn6ccccc6[n+]5C)cc4)c3)cc2)cn2ccccc21,–,5.22,4.05
CC(C)CCC[C@@H](C)C1CCC2[C@@H]3CC=C4C[C@@H](OP(=O)(O)OP(=O)(O)O)CC[C@]4(C)C3CC[C@@]21C (stereo partly drawn),–,< 5.21,< 5.21
[N-]=[N+]=NC1OC(=O)C(Cl)=C1N=P(c1ccccc1)(c1ccccc1)c1ccccc1 (stereo not drawn),–,< 4.16,5.10
CCCOc1cnc([C@H]2CCC3[C@@H]4CC=C5C[C@@H](OC(C)=O)CC[C@]5(C)C4CC[C@@]32C)s1 (stereo partly drawn),–,< 4.26,< 4.26
Cc1cc(O)c(/C=N/C(=S)Nc2cccc(C)c2C)c(=O)o1,inactive,–,–
COc1cc(C=C2C(=O)NC(=O)NC2=O)cc(OC)c1OC,–,< 3.37,3.59
C=CCSC(C)=O,–,< 3.70,< 3.70
N#CC1(C#N)NC(c2cccnc2)C(C#N)(C#N)NC1c1cccnc1 (stereo not drawn),–,< 3.70,< 3.70
CCCCCCN(CCCCCC)C1=CC(=O)C(=O)c2ccccc21,–,< 4.02,4.78
O=C1C=C(Nc2ccccc2C(=O)CC(=O)C(=O)Nc2ccc(Cl)cc2)c2ccccc2C1=O,–,< 4.40,5.66
C/C1=C\CC[C@@]2(C)O[C@@H]2[C@H]2OC(=O)C(C)C2C[C@H]1O (stereo partly drawn),–,< 3.70,< 3.70

Compound,outcome,pEC50,pIC50
CSc1nc(C)c2c(n1)SCC2,–,< 3.70,< 3.70
NC(=O)NC12CC3CC(CC(F)(C3)C1)C2,–,< 2.93,< 2.93
COC(=NC(C)C)NC(C)C,–,< 3.70,< 3.70
O=C(O)CCCCCCCCCCOc1ccc(I)cc1,–,< 3.70,4.55
CC(=O)OCCn1c(Cc2ccc([N+](=O)[O-])cc2)nn(C(C)=O)c1=O,–,< 3.70,< 3.70
O=c1cc(-c2ccc(Cl)cc2)oc2cc(OCCCOc3ccc4c(=O)cc(-c5ccc(Cl)cc5)oc4c3)ccc12,–,< 6.19,< 6.19
Cn1cc(C(=O)C2CCCCC2)ccc1=O,–,< 2.94,3.43
COc1ccc(CCC2NCCc3cc(OC)c(OC)cc32)cc1 (stereo not drawn),–,< 3.16,3.99
CCOC(=O)C(NC(=O)c1ccccc1)(Nc1ccc(S(=O)(=O)Nc2cc(C)on2)cc1)C(F)(F)F (stereo not drawn),–,< 3.70,< 3.70
Cn1c(=O)n2n(c1=O)Cc1cccc3cccc(c13)C2,–,< 3.70,< 3.70
O=C(Nc1ccc(Br)cc1)C(=O)C(C(=O)c1ccccc1F)C1OC(=O)c2ccccc21 (stereo not drawn),–,< 3.58,4.45
COc1ccc(-c2cc(-c3ccc4c(c3)CC(C)O4)nc(N)n2)cc1 (stereo not drawn),–,< 4.52,4.70
O=C1c2ccccc2C(=O)c2c1cccc2-n1nnc2cc(Cl)c(Cl)cc21,inactive,–,–
COC1/C=C/OC2(C)Oc3c(C)c(O)c4c(O)c(c(/C=N/N5CCCCC5)c(O)c4c3C2=O)NC(=O)C(C)=C/C=C/C(C)C(O)C(C)C(O)C(C)C(OC(C)=O)C1C (stereo not drawn),–,< 3.70,4.99
O=C1c2ccccc2C(=O)C1C(c1ccc(F)cc1)C1C(=O)c2ccccc2C1=O,–,< 4.33,4.44
